Results as given in patent US20220040123A1, “ANTI-HELICOBACTER FOOD COMPOSITION COMPRISING BETA-CARYOPHYLLENE” (priority 2018, published 2022).

Tests used:
[1] = system: H. pylori; assay: CLO score after the CLO test; format: in vivo, C57BL/6 mouse; conditions: for CLO score: 28 days, score 0-3, control G3 2.10
Experimental: (§1) In order to compare the Helicobacter pylori eradiation effect between beta-caryophyllene and the antibiotics that are used for treatment of Helicobacter pylori infection, an animal test was performed using the test groups and doses shown in Table 1 below.
(§2) Each test substance was suspended in an excipient according to the dose and administered to each mouse once a day at the same time every day for a total of 28 days in a dose of 5 ml per kg mouse (C57BL/6 mouse) by oral gavage method.
The mean and standard deviation of each group were calculated, and the difference between the values of the groups was compared, and the results are shown in Table 3 below.

[2] = system: cagA, vacA and secA genes; assay: RT-PCR of cagA, vacA and secA gene expression; format: cell-based, Helicobacter pylori; conditions: 31.25, 62.5, 125, 250 and 500 μg/ml
Experimental: In addition, in order to examine changes in expression of cagA, vacA and secA genes, H. pylori was treated with beta-caryophyllene at concentrations of 31.25, 62.5, 125, 250 and 500 μg/ml, and then RT-PCR was performed.

[3] = system: flhA, flaA, flaB and flgE genes; assay: RT-PCR of flagella-associated genes of H. pylori; format: cell-based, Helicobacter pylori; conditions: 31.25-500 μg/ml
Experimental: In order to evaluate the effect of beta-caryophyllene treatment on the inhibition of flagella of H. pylori, changes in the expression of the flhA, flaA, flaB and flgE genes which constitute the flagella or are associated with the function of the flagella were examined, and the results are shown in FIG. 9. Specifically, H. pylori was treated with beta-caryophyllene at concentrations of 31.25, 62.5, 125, 250 and 500 μg/ml, and expression of the genes was analyzed by RT-PCR.

[4] = system: Helicobacter pylori; assay: Immunohistochemical staining of gastric mucosa and submucosal layer with Helicobacter pylori-specific antibody; format: in vivo, Mongolian gerbils
Experimental: (§3) Mongolian gerbils were infected with a Helicobacter pylori strain (ATCC 49503) and then subjected to two weeks of acclimatization. To this end, the animals were fasted for 12 hours before and after inoculation with the Helicobacter pylori strain. 500 μl (1×10^9 CFU) of a bacterial suspension was prepared by suspending H. pylori in sterile physiological saline to a concentration of 2×10^9 CFU/ml and introduced directly into the stomach by using a feeding needle. For stable infection, the H. pylori strain was dispensed three times at 48 hour-intervals.
(§4) Beta-caryophyllene was administered directly into the gastrointestinal at doses of 100 mg/kg and 500 mg/kg for the low and high dose groups, respectively, for 12 weeks after two weeks after infection with H. pylori. The same amount of corn oil as the beta-caryophyllene was administered to each of the non-infected group and the infected group.
At weeks 0, 6 and 12 of the experiment, a paraffin block was prepared from with the stomach tissue of the infected animal model, and then stomach tissue slide sample with a thickness of 2 μm was prepared from the paraffin block using a microtome (Leica). For immunohistochemical staining, the slide was deparaffinized, heated with citrate buffer in a bath for 20 minutes, and then subjected to immunohistochemical staining using an IHC kit (Vectastain ABC kit, Vector). […]

[5] = system: CagA, VacA and SecA proteins; assay: Western blotting of H. pylori toxins CagA, VacA and SecA; format: cell-based, Helicobacter pylori; conditions: 125, 250 and 500 μg/ml, 3 days culture
Experimental: To evaluate the effect of beta-caryophyllene treatment on the production of toxins secreted by Helicobacter pylori, Helicobacter pylori was treated with beta-caryophyllene, and then the amounts of CagA, VacA and SecA proteins were analyzed by Western blotting.
For Western blotting, samples obtained by treating Helicobacter pylori with beta-caryophyllene at concentrations of 0, 125, 250 and 500 μg/ml and culturing the treated Helicobacter pylori for 3 days were lysed with RIPA lysis buffer (Millipore) on ice for 30 minutes and then centrifuged. The supernatants were collected, and then proteins therein were quantified using a spectrophotometer (Infinite M200, TECAN).
Equal amounts of protein samples were loaded and electrophoresed on 10% SDS polyacrylamide gel, and the protein fractions were transferred to nitrocellulose membranes (PALL) and reacted with CagA (mouse monoclonal IgG antibody, Santa Cruz), VacA (rabbit polyclonal IgG antibody, Santa Cruz), SecA (rabbit polyclonal IgG antibody, produced by the applicant) and anti-Helicobacter pylori (rabbit polyclonal IgG antibody, produced by the applicant) antibodies at 4° C. for 16 hours. After completion of the primary antibody reaction, secondary blocking (1 hr/RT) was performed. As secondary antibodies, donkey anti-rabbit IgG-HRP, donkey anti-mouse IgG-HRP or donkey anti-goat IgG-HRP (Santa Cruz) was used depending on the primary antibody. The reaction products were treated by an enhanced chemiluminescence kit (Thermo), and then analyzed by Chemidoc (Fusion solo, Vilber Lourmat).

[6] = system: H. pylori; assay: Gastric rapid urease test (CLO test), therapeutic rate; format: in vivo, C57BL/6 mouse; conditions: oral gavage, 28 days, control G3 30%
Experimental: as §1, §2
The rapid urease test is based on the principle according to which, when H. pylori is present in gastric mucosa, the bacteria produce ammonia by secreting urease while proliferating in a medium containing a test reagent and a pH indicator, and a change in the color of the pH indicator is examined.
The gastric mucosal tissue extracted on the day of the autopsy was collected aseptically and tested using a Campylobacter-like organism (CLO) test reagent. The tissue was incubated in an incubator at 37° C. for 2 hours, the resulting color changed from yellow to red, the sample was judged as positive. The number of mice determined to be positive was calculated as a percentage, and the therapeutic rate for H. pylori eradication by sample treatment was obtained using the following equation, and the results are shown in Table 2 below.
Therapeutic rate (%)=(number of samples−number of positive samples)/number of samples×100

[7] = system: Helicobacter pylori; assay: RT-PCR of H. pylori-specific 16S rRNA in stomach tissue of infected animals; format: in vivo, Mongolian gerbils; conditions: groups treated with 100 mg/kg and 500 mg/kg
Experimental: as §3, §4
To confirm H. pylori infection, the stomach tissues of the four animal groups prepared in the H. pylori-infected animal preparation process shown in Experimental Example 2 were subjected to RT-PCR in order to examine whether H. pylori-specific 16S rRNA would be detected.

C=C1CC/C=C(\C)CC[C@@H]2[C@@H]1CC2(C)C [beta-caryophyllene]
CLO score ([1]; G6: 100 mg/kg/day): 1.2
decrease of CLO score compared to G3 ([1]; G6: 100 mg/kg/day, not statistically significant): 42.9%
CLO score ([1]; G7: 200 mg/kg/day): 1.11
decrease of CLO score compared to G3 ([1]; G7: 200 mg/kg/day, not statistically significant): 47.1%
CLO score ([1]; G8: 500 mg/kg/day): 0.5
decrease of CLO score compared to G3 ([1]; G8: 500 mg/kg/day, statistically significant): 76.2%
transcription of other genes, including UDP-galactose 4-epimerase (control) [2]: did not affect
transcription of toxin protein gene cagA [2]: tended to be inhibited
transcription of toxin protein gene vacA [2]: tended to be inhibited
expression of flgE gene [3]: decreased
expression of flhA gene [3]: decreased
Helicobacter pylori infection in gastric mucosa and submucosal layer (IHC) ([4]; week 6, low dose (100 mg/kg) and high dose (500 mg/kg) groups vs infected group): significantly decreased
Helicobacter pylori detection in gastric mucosa (IHC) ([4]; week 12, low dose (100 mg/kg) and high dose (500 mg/kg) groups vs infected group): hardly detected
secretion of CagA (Western blot) [5]: inhibited
secretion of SecA (Western blot) [5]: inhibited
secretion of VacA (Western blot) [5]: inhibited
Therapeutic % ([6]; G6: 100 mg/kg/day): 60%
Therapeutic % ([6]; G7: 200 mg/kg/day): 56%
Therapeutic % ([6]; G8: 500 mg/kg/day): 80%
Helicobacter pylori eradication rate ([7]; first value, week 6 (or 100 mg/kg; wording ambiguous)): 90.4%
Helicobacter pylori eradication rate ([7]; second value, week 12 (or 500 mg/kg; wording ambiguous)): 95.8%
